According to patent US20100256048A1, “POLYPEPTIDE COMPOUND” (Astellas Pharma Inc., priority 2007, published 2010):

Key:
[1] = system: A. fumigatus 20030; assay: Mouse respiratory infection model; assay type: in vivo, Aspergillus fumigatus; conditions: male ICR mice given cyclophosphamide, compound intravenously, lives and deaths observed over 10 days
Method: Effect to Mouse Respiratory Infection Model
4-week old male ICR mice were used so as to be eight mice in a group. 200 mg/kg of cyclophosphamide is intraperitoneally administered into mice at 4 days before infection and 1 day after infection. Conidium liquid (0.05 mL: approximately 2.2×10^6) of A. fumigatus 20030 suspended in physiological saline was inoculated from respiratory passages of mice to cause respiratory infection. The compound was administered intravenously for 2 hours to 4 days after the infection. The lives and deaths of the mice were observed over a 10 day period starting from the next day.

[2] = system: C. albicans (Candida albicans); assay: MIC in human serum by microdilution, C. albicans; assay type: cell-based; conditions: human serum buffered with 20 mM HEPES pH 7.3; 37° C., 24 hours, 5% CO2; geometric mean of three clinical cell lines; growth completely inhibited
Method: (§1) Measurement of Susceptibility to C. albicans (Candida albicans) and A. fumigatus (Aspergillus fumigatus) By the microdilution method where human serum buffered with 20 mM-HEPES buffer (pH 7.3) was used as a test medium, MIC (minimum inhibitory concentration) in human serum was determined. The inoculum suspension of 10^6 cells/mL was prepared by a hemocytometric procedure to obtain an inoculum size of approximately 5×10^3 to 2×10^4cells/mL. Microplates were incubated at 37° C. for 24 hours under 5% CO2 atmosphere. […] The values were shown as geometric mean of MIC with reference to three of clinical cell lines.

[3] = system: A. fumigatus (Aspergillus fumigatus); assay: MIC in human serum by microdilution, A. fumigatus; assay type: cell-based; conditions: human serum buffered with 20 mM HEPES pH 7.3; 37° C., 24 hours, 5% CO2; geometric mean of three clinical cell lines; growth sufficiently inhibited versus growth control
Method: as §1

SMILES: COc1cc(C[C@@H](O)[C@@H]2NC(=O)[C@@H]3C[C@@H](O)CN3C(=O)[C@H]([C@@H](C)O)NC(=O)[C@@H](NC[C@H]3CC[C@H](c4nnc(-c5ccc(N6CCC(OC)(C7CCCCC7)CC6)cc5)s4)CC3)C[C@@H](O)CNC(=O)[C@@H]3[C@@H](O)[C@@H](C)CN3C(=O)[C@H]([C@H](O)CCNC(CO)CO)NC2=O)ccc1O [Ex 6]
- Infection experiments ED50 A. fumigatus [1]: 0.44 mg/kg

SMILES: C[C@@H](O)[C@@H]1NC(=O)[C@@H](NCC2CCN(c3nnc(-c4ccc(-c5cnc(N6CCC(OC7CCCCC7)CC6)nc5)cc4)s3)CC2)C[C@@H](O)CNC(=O)[C@@H]2[C@@H](O)[C@@H](C)CN2C(=O)[C@H]([C@H](O)CC(=O)NCCN)NC(=O)[C@H]([C@H](O)Cc2ccc(O)c(OS(=O)(=O)O)c2)NC(=O)[C@@H]2C[C@@H](O)CN2C1=O [Ex 30]
- MIC (mean of three cell lines) C. albicans [2]: 0.4 µg/mL
- MIC (mean of three cell lines) A. fumigatus [3]: 0.32 µg/mL

SMILES: COc1cc(C[C@@H](O)[C@@H]2NC(=O)[C@@H]3C[C@@H](O)CN3C(=O)[C@H]([C@@H](C)O)NC(=O)[C@@H](NC[C@H]3CC[C@H](c4nnc(-c5ccc(N6CCC(OC)(C7CCCCC7)CC6)cc5)s4)CC3)C[C@@H](O)CNC(=O)[C@@H]3[C@@H](O)[C@@H](C)CN3C(=O)[C@H]([C@H](O)CCN)NC2=O)ccc1O [Ex 1]
- Infection experiments ED50 A. fumigatus [1]: <0.3 mg/kg

SMILES: C[C@@H](O)[C@@H]1NC(=O)[C@@H](NC[C@H]2CC[C@H](c3nnc(-c4ccc(N5CCC(OC6CCCCC6)CC5)cc4)s3)CC2)C[C@@H](O)CNC(=O)[C@@H]2[C@@H](O)[C@@H](C)CN2C(=O)[C@H]([C@H](O)CCNC(CO)CO)NC(=O)[C@H]([C@H](O)Cc2ccc(O)c(OS(=O)(=O)O)c2)NC(=O)[C@@H]2C[C@@H](O)CN2C1=O [Ex 33]
- Infection experiments ED50 A. fumigatus [1]: 0.39 mg/kg
